Data from ChEMBL document CHEMBL5380800, “Discovery of Small-Molecule Autophagy Inhibitors by Disrupting the Protein-Protein Interactions Involving Autophagy-Related 5” (J Med Chem, 2023).
The source made the active and inactive calls. No cut-off for these calls is given here.

What was measured:
[1] = test system: U-937; assay: Downregulation of LC3-II protein level in human U-937 cells at 5 to 40 uM incubated for 6 hrs in presence of rapamycin/chloroquine by Western blot analysis; assay type: functional, cell-based; conditions: dose 5-40 µM
[2] = Inhibition of ATG5-TECAIR (unknown origin) protein protein interaction expressed in Escherichia coli BL21 (DE3) by HTRF method; parameters: species or system Homo sapiens; conditions: read-out: IC50
[3] = Inhibition of ATG5-ATG16L1 (unknown origin) protein protein interaction expressed in Escherichia coli BL21 (DE3) by HTRF method; parameters: species or system Homo sapiens; conditions: read-out: IC50
[4] = test system: COS-7; assay: Downregulation of LC3-II protein level in African green monkey COS-7 cells at 1.25 to 20 uM incubated for 6 hrs by Western blot analysis; assay type: functional, cell-based; conditions: Chlorocebus aethiops, dose 1.25-20 µM
[5] = test system: COS-7; assay: Inhibition of autophagy in African green monkey COS-7 cells at 20 uM by flow cytometry analysis relative to control; assay type: functional; conditions: Chlorocebus aethiops
[6] = test system: THP-1; assay: Downregulation of LC3-II protein level in human THP-1 cells at 5 to 40 uM incubated for 6 hrs in presence of rapamycin/chloroquine by Western blot analysis; assay type: functional, cell-based; conditions: dose 5-40 µM
[7] = test system: COS-7; assay: Inhibition of autophagy in African green monkey COS-7 cells assessed as effect on LC3 level by flow cytometry analysis; assay type: toxicity, cell-based; conditions: chlorocebus aethiops, cos-7, 40 µM

- IC50 [2]: 1700 nM
- IC50 [3]: 1100 nM
SMILES: O=C(O)c1ccc(N2C(=O)/C(=C/c3ccc(-c4ccc([N+](=O)[O-])cc4)o3)C=C2c2ccccc2)cc1
- Activity [1]: Active
- Activity [4]: Active
- inhibition at 20 µM [5]: 7.16%
- Activity [6]: Active
- inhibition (INH) [7]: Dose-Dependent Effect
